Test system: d27-1/GFP HSV-1
Assay: Effect of valproic acid pretreatment on d27-1/GFP HSV-1 viral titer in V27 cells
Format: cell-based
Method: Valproic acid (Sigma-P4543) was dissolved to 1 M concentration in water. V27 cells were seeded into six well plates the day prior to infection at 6×10^5 cells/well. […] This was vortexed well and added to the wells. Plates were incubated for six hours, aspirated and infectious HSV-1 d27-1 stock added at MOI 0.15 (=cell seed density×0.15/pfu titer of HSV stock) per 1 ml of DMEM (no additives).
1 ml of infectious inoculum was added per well and incubated for 1-2 hours at 37° C., 5% CO2 incubator after which time 1.5 ml of DMEM-10% FBS was added. The plates were returned to the incubator for 70-74 hours. Free media was harvested, vortexed, and centrifuged at 1,100×g for 10 minutes at 4° C. Supernatant was transferred to a new dispensing tube, vortexed, and aliquoted. Stocks were frozen at −80° C.
V27 cells were seeded into six well plates the day prior to infection at 6×10^5 cells/well and the next day, different concentrations of VA were added to wells. Plates were incubated for 6 hrs, aspirated and ⅖ vol of media containing infectious HSV-1 d27-1 stock was added and incubated for 1-2 hours at 37° C., […] after which time ⅗ vol of DMEM 10% FBS media was added. The cultures were returned to the incubator and supernatant was harvested after 70-74 hours.

## CCCC(CCC)C(=O)O [VA, valproic acid]
VA 5 mM, 6 hrs pretreatment
  titer of d27-1/GFP HSV-1 compared to untreated control: slightly elevated
VA concentrations below and above 5 mM, pretreatment
  titer of d27-1/GFP HSV-1 compared to untreated control: inhibitory effect

Source: patent publication US11299715B2, “Use of iNOS inhibitors to increase viral yield in culture” (priority 2013, dated 2022)
